Test results reported in US8735417B2, “Aminopyrimidines as Syk inhibitors” (Merck Sharp & Dohme Corp., priority 2009, dated 2014).

Columns and labels:
[1] = biological target: T1, recombinant human GST-SYK (Homo sapiens, UniProt P43405); assay: Homogeneous Time-Resolved Fluorescence (HTRF) assay for the recombinant human SYK enzyme; format: biochemical; details: recombinant human GST-SYK 5 pM, ATP 25 μM, 10-dose titration; read-out: rhSYK Activity (IC50)
T1 construct: purchased Carna Biosciences 08-176
Method in brief: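 GST-hSYK (5 pM) preincubated 10 min at room temperature with inhibitor (0.1% DMSO) in Tris pH 7.5 buffer; reaction started with 250 nM biotinylated peptide, 5 mM Mg and 25 μM ATP, 45 min. EDTA quench with Eu-anti-phosphotyrosine antibody and SA-APC; HTRF read after 30 min.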

allergic rhinitis [2] = details: dosed intranasally, phase I/II study; cited from earlier work
allergic rhinitis [3] = details: phase II clinical trial; cited from earlier work

Compound | IC50 [1] [nM] | also measured
O=C(O)C1CCN(c2nc(-c3cccc(Nc4nccc(C(F)(F)F)n4)c3)cs2)CC1 [Example 229, 1-[4-(3-{[4-(trifluoromethyl)pyrimidin-2-yl]amino}phenyl)-1,3-thiazol-2-yl]piperidine-4-carboxylic acid] | 100 to 1000 | –
NC(=O)C1CCN(c2nc(-c3cccc(Nc4nccc(C(F)(F)F)n4)c3)cs2)CC1 [Example 230, 1-[4-(3-{[4-(trifluoromethyl)pyrimidin-2-yl]amino}phenyl)-1,3-thiazol-2-yl]piperidine-4-carboxamide] | 100 to 1000 | –
Cc1ccnc(Nc2cccc(-c3csc(N4CCC(C(=O)O)CC4)n3)c2)n1 [Example 231, 1-(4-{3-[(4-methylpyrimidin-2-yl)amino]phenyl}-1,3-thiazol-2-yl)piperidine-4-carboxylic acid] | 100 to 1000 | –
Cc1ccnc(Nc2cccc(-c3csc(N4CCC(C(N)=O)CC4)n3)c2)n1 [Example 232] | 100 to 1000 | –
Oc1cccc(Nc2ncc(F)c(Nc3cccc(O)c3)n2)c1 [Example R112] | – | clinical safety (allergic rhinitis [2]): safe across a range of indicators; decrease in PGD2 (allergic rhinitis [2]): statistically significant decrease; efficacy versus placebo (allergic rhinitis [3]): lack of efficacy versus placebo

Further lines, with some results ahead:

IC50 [1] [nM] | Compound | also measured
≤ 100 | Cc1cc(Nc2nccc(C(F)(F)F)n2)cc(-c2cnc(N3CCCNC(=O)C3)s2)c1 [Example 226, 4-[5-(3-methyl-5-{[4-(trifluoromethyl)pyrimidin-2-yl]amino}phenyl)-1,3-thiazol-2-yl]-1,4-diazepan-2-one] | –
≤ 100 | COc1ccnc(Nc2cc(C)cc(-c3sc(N4CCCNC(=O)C4)nc3Cl)c2)n1 [Example 227, 4-(4-chloro-5-{3-[(4-methoxypyrimidin-2-yl)amino]-5-methylphenyl}-1,3-thiazol-2-yl)-1,4-diazepan-2-one] | –
≤ 100 | Cc1cc(Nc2nccc(C(F)(F)F)n2)cc(-c2sc(N3CCCNC(=O)C3)nc2Cl)c1 [Example 228, 4-[4-chloro-5-(3-methyl-5-{[4-(trifluoromethyl)pyrimidin-2-yl]amino}phenyl)-1,3-thiazol-2-yl]-1,4-diazepan-2-one] | –
